The source of these data is ChEMBL document CHEMBL3045406, “Enantioselective Relieving Activity of α-Methylbenzylphenylureas toward Bensulfuron-methyl Injury to Rice (Oryza sativa)” (Biosci Biotechnol Biochem, 1999).

One data set relates to Oryza sativa. Kind of data set: Relieving activity against bensulfuron-methyl induced injury to Oryza sativa (rice) assessed as growth rate at 0.1 uM (Rbv = 46 to 53%). The class given is functional.
Details: not given
On to `C[C@@H](NC(=O)Nc1cccc(Br)c1)c1ccccc1`, for which the Activity amounted to 66%.
The same measure, in the same setting: the same measure for `C[C@@H](NC(=O)Nc1ccccc1C(C)(C)C)c1ccccc1`: 58%.
Still for that read-out and setting: the same measure for `C[C@H](NC(=O)Nc1cccc(Cl)c1Cl)c1ccccc1`: 89%; for `Cc1cc(F)ccc1NC(=O)N[C@@H](C)c1ccccc1`: 56%.
For `CCOC(=O)c1ccccc1NC(=O)N[C@@H](C)c1ccccc1`, the Activity is 50%.
Still for that read-out and setting: then `C[C@@H](NC(=O)Nc1ccc(C(F)(F)F)cc1)c1ccccc1`, with 59%; and `COc1cccc(NC(=O)N[C@@H](C)c2ccccc2)c1`, with 65%.
Same read-out and setting: the same measure for `C[C@@H](NC(=O)Nc1cccc(Cl)c1)c1ccccc1`: 50%; for `C[C@H](NC(=O)Nc1ccc(I)cc1)c1ccccc1`: 70%.
Regarding `Cc1ccc(NC(=O)NC(C)(C)c2ccccc2)cc1` [DAIMURON], the Activity is 74%.

Another data set deals with Oryza sativa. Kind of data set: Safener indices, ratio of compound effect of Oryza sativa (rice) growth rate to relieving activity against bensulfuron-methyl induced injury to Oryza sativa growth rate at 1 uM.
Details: not given
In the case of `C[C@@H](NC(=O)Nc1cccc(Br)c1)c1ccccc1`, the Ratio was 59.
With `C[C@@H](NC(=O)Nc1ccccc1C(C)(C)C)c1ccccc1`, the Ratio was found to be 24.
In the case of `C[C@H](NC(=O)Nc1cccc(Cl)c1Cl)c1ccccc1`, the Ratio came out at 91.
On the same count and under the same terms, then `Cc1cc(F)ccc1NC(=O)N[C@@H](C)c1ccccc1`, with 40.
Still for that read-out and setting: then `CCOC(=O)c1ccccc1NC(=O)N[C@@H](C)c1ccccc1`, with 21; and `C[C@@H](NC(=O)Nc1ccc(C(F)(F)F)cc1)c1ccccc1`, with 53; and `COc1cccc(NC(=O)N[C@@H](C)c2ccccc2)c1`, with 70.
On the same count and under the same terms, the same measure for `C[C@@H](NC(=O)Nc1cccc(Cl)c1)c1ccccc1`: 19; for `C[C@H](NC(=O)Nc1ccc(I)cc1)c1ccccc1`: 70; for `Cc1ccc(NC(=O)NC(C)(C)c2ccccc2)cc1` [DAIMURON]: 78.

The test system of a further data set is Oryza sativa. Kind of data set: Safener indices, ratio of compound effect of Oryza sativa (rice) growth rate to relieving activity against bensulfuron-methyl induced injury to Oryza sativa growth rate at 0.1 uM.
Details: not given
With `C[C@@H](NC(=O)Nc1cccc(Br)c1)c1ccccc1`, the Ratio turned out to be 31.
As to `C[C@@H](NC(=O)Nc1ccccc1C(C)(C)C)c1ccccc1`, the Ratio amounted to 15.
Consider `C[C@H](NC(=O)Nc1cccc(Cl)c1Cl)c1ccccc1`, for which the Ratio worked out at 76.
Still for that read-out and setting: then `Cc1cc(F)ccc1NC(=O)N[C@@H](C)c1ccccc1`, with 9; and `CCOC(=O)c1ccccc1NC(=O)N[C@@H](C)c1ccccc1`, with 0; and `C[C@@H](NC(=O)Nc1ccc(C(F)(F)F)cc1)c1ccccc1`, with 22.
Still for that read-out and setting: then `COc1cccc(NC(=O)N[C@@H](C)c2ccccc2)c1`, with 22; and `C[C@@H](NC(=O)Nc1cccc(Cl)c1)c1ccccc1`, with -2.
Take `C[C@H](NC(=O)Nc1ccc(I)cc1)c1ccccc1`: the Ratio worked out at 39.
Same read-out and setting: the same measure for `Cc1ccc(NC(=O)NC(C)(C)c2ccccc2)cc1` [DAIMURON]: 47.

Another data set has as its system Oryza sativa. The experiment in a line: Effect on Oryza sativa (rice) assessed as growth rate at 10 uM relative to control. The class given is organism-based. Particulars: in vivo.
`C[C@@H](NC(=O)Nc1cccc(Br)c1)c1ccccc1`: the Activity is given as 99%.
On the same count and under the same terms, the same measure for `C[C@@H](NC(=O)Nc1ccccc1C(C)(C)C)c1ccccc1`: 17%; for `C[C@H](NC(=O)Nc1cccc(Cl)c1Cl)c1ccccc1`: 101%; for `Cc1cc(F)ccc1NC(=O)N[C@@H](C)c1ccccc1`: 96%.
The same measure, in the same setting: the same measure for `CCOC(=O)c1ccccc1NC(=O)N[C@@H](C)c1ccccc1`: 100%.
The same measure, in the same setting: then `C[C@@H](NC(=O)Nc1ccc(C(F)(F)F)cc1)c1ccccc1`, with 82%.
Consider `COc1cccc(NC(=O)N[C@@H](C)c2ccccc2)c1`, for which the Activity turned out to be 99%.
With `C[C@@H](NC(=O)Nc1cccc(Cl)c1)c1ccccc1`, the Activity is on record as 83%.
On the same count and under the same terms, then `C[C@H](NC(=O)Nc1ccc(I)cc1)c1ccccc1`, with 95%; and `Cc1ccc(NC(=O)NC(C)(C)c2ccccc2)cc1` [DAIMURON], with 77%.

The next data set deals with Oryza sativa. Kind of data set: Relieving activity against bensulfuron-methyl induced injury to Oryza sativa (rice) assessed as growth rate at 10 uM (Rbv = 46 to 53%). The class given is functional.
Details: not given
In the case of `C[C@@H](NC(=O)Nc1cccc(Br)c1)c1ccccc1`, the Activity is recorded as 92%.
With `C[C@@H](NC(=O)Nc1ccccc1C(C)(C)C)c1ccccc1`, the Activity was found to be 40%.
Still for that read-out and setting: the same measure for `C[C@H](NC(=O)Nc1cccc(Cl)c1Cl)c1ccccc1`: 98%.
As to `Cc1cc(F)ccc1NC(=O)N[C@@H](C)c1ccccc1`, the Activity came to 81%.
Same read-out and setting: the same measure for `CCOC(=O)c1ccccc1NC(=O)N[C@@H](C)c1ccccc1`: 67%; for `C[C@@H](NC(=O)Nc1ccc(C(F)(F)F)cc1)c1ccccc1`: 67%; for `COc1cccc(NC(=O)N[C@@H](C)c2ccccc2)c1`: 97%.
Same read-out and setting: then `C[C@@H](NC(=O)Nc1cccc(Cl)c1)c1ccccc1`, with 61%.
On the same count and under the same terms, the same measure for `C[C@H](NC(=O)Nc1ccc(I)cc1)c1ccccc1`: 92%.
As to `Cc1ccc(NC(=O)NC(C)(C)c2ccccc2)cc1` [DAIMURON], the Activity came out at 79%.

Another data set relates to Oryza sativa. Kind of data set: Safener indices, ratio of compound effect of Oryza sativa (rice) growth rate to relieving activity against bensulfuron-methyl induced injury to Oryza sativa growth rate at 10 uM.
Details: not given
Consider `C[C@@H](NC(=O)Nc1cccc(Br)c1)c1ccccc1`, for which the Ratio stood at 85.
On the same count and under the same terms, the same measure for `C[C@@H](NC(=O)Nc1ccccc1C(C)(C)C)c1ccccc1`: 34.
As for `C[C@H](NC(=O)Nc1cccc(Cl)c1Cl)c1ccccc1`, the Ratio came to 96.
On the same count and under the same terms, then `Cc1cc(F)ccc1NC(=O)N[C@@H](C)c1ccccc1`, with 62; and `CCOC(=O)c1ccccc1NC(=O)N[C@@H](C)c1ccccc1`, with 34; and `C[C@@H](NC(=O)Nc1ccc(C(F)(F)F)cc1)c1ccccc1`, with 42.
Still for that read-out and setting: the same measure for `COc1cccc(NC(=O)N[C@@H](C)c2ccccc2)c1`: 94.
Turning to `C[C@@H](NC(=O)Nc1cccc(Cl)c1)c1ccccc1`, the Ratio is 32.
The same measure, in the same setting: the same measure for `C[C@H](NC(=O)Nc1ccc(I)cc1)c1ccccc1`: 85; for `Cc1ccc(NC(=O)NC(C)(C)c2ccccc2)cc1` [DAIMURON]: 66.

Tested on in the next data set: not listed separately
The experiment in a line: Hydrophobicity, log K of the compound. The class given is physicochemical. Particulars: octanol/water.
As for `C[C@@H](NC(=O)Nc1cccc(Br)c1)c1ccccc1`, the “log K” value stood at 0.512.
Still for that read-out and setting: then `C[C@@H](NC(=O)Nc1ccccc1C(C)(C)C)c1ccccc1`, with 0.535; and `C[C@H](NC(=O)Nc1cccc(Cl)c1Cl)c1ccccc1`, with 0.646; and `Cc1cc(F)ccc1NC(=O)N[C@@H](C)c1ccccc1`, with 0.356.
Still for that read-out and setting: the same measure for `CCOC(=O)c1ccccc1NC(=O)N[C@@H](C)c1ccccc1`: 0.667.
On the same count and under the same terms, the same measure for `C[C@@H](NC(=O)Nc1ccc(C(F)(F)F)cc1)c1ccccc1`: 0.537; for `COc1cccc(NC(=O)N[C@@H](C)c2ccccc2)c1`: 0.277; for `C[C@@H](NC(=O)Nc1cccc(Cl)c1)c1ccccc1`: 0.47.
As for `C[C@H](NC(=O)Nc1ccc(I)cc1)c1ccccc1`, the “log K” value was determined as 0.556.
The same measure, in the same setting: the same measure for `Cc1ccc(NC(=O)NC(C)(C)c2ccccc2)cc1` [DAIMURON]: 0.487.

The next data set relates to Oryza sativa. The experiment in a line: Effect on Oryza sativa (rice) assessed as growth rate at 0.1 uM relative to control. In kind it is organism-based. Particulars: in vivo.
`C[C@@H](NC(=O)Nc1cccc(Br)c1)c1ccccc1`: the Activity stood at 100%.
On the same count and under the same terms, then `C[C@@H](NC(=O)Nc1ccccc1C(C)(C)C)c1ccccc1`, with 100%.
On the same count and under the same terms, the same measure for `C[C@H](NC(=O)Nc1cccc(Cl)c1Cl)c1ccccc1`: 100%.
Still for that read-out and setting: the same measure for `Cc1cc(F)ccc1NC(=O)N[C@@H](C)c1ccccc1`: 99%; for `CCOC(=O)c1ccccc1NC(=O)N[C@@H](C)c1ccccc1`: 100%.
`C[C@@H](NC(=O)Nc1ccc(C(F)(F)F)cc1)c1ccccc1`: the Activity worked out at 93%.
Same read-out and setting: the same measure for `COc1cccc(NC(=O)N[C@@H](C)c2ccccc2)c1`: 101%; for `C[C@@H](NC(=O)Nc1cccc(Cl)c1)c1ccccc1`: 97%; for `C[C@H](NC(=O)Nc1ccc(I)cc1)c1ccccc1`: 99%.
Turning to `Cc1ccc(NC(=O)NC(C)(C)c2ccccc2)cc1` [DAIMURON], the Activity is 99%.

For a further data set, the system named is Oryza sativa. The experiment in a line: Relieving activity against bensulfuron-methyl induced injury to Oryza sativa (rice) assessed as growth rate at 1 uM (Rbv = 46 to 53%). The class given is functional.
Details: not given
Take `C[C@@H](NC(=O)Nc1cccc(Br)c1)c1ccccc1`: the Activity is listed as 80%.
The same measure, in the same setting: then `C[C@@H](NC(=O)Nc1ccccc1C(C)(C)C)c1ccccc1`, with 61%; and `C[C@H](NC(=O)Nc1cccc(Cl)c1Cl)c1ccccc1`, with 96%; and `Cc1cc(F)ccc1NC(=O)N[C@@H](C)c1ccccc1`, with 71%.
The same measure, in the same setting: the same measure for `CCOC(=O)c1ccccc1NC(=O)N[C@@H](C)c1ccccc1`: 60%.
Still for that read-out and setting: the same measure for `C[C@@H](NC(=O)Nc1ccc(C(F)(F)F)cc1)c1ccccc1`: 74%; for `COc1cccc(NC(=O)N[C@@H](C)c2ccccc2)c1`: 86%; for `C[C@@H](NC(=O)Nc1cccc(Cl)c1)c1ccccc1`: 57%.
With `C[C@H](NC(=O)Nc1ccc(I)cc1)c1ccccc1`, the Activity is given as 85%.
Same read-out and setting: then `Cc1ccc(NC(=O)NC(C)(C)c2ccccc2)cc1` [DAIMURON], with 88%.

In the next data set the test system is Oryza sativa. Kind of data set: Effect on Oryza sativa (rice) assessed as growth rate at 1 uM relative to control. Particulars: in vivo. In kind it is organism-based.
For `C[C@@H](NC(=O)Nc1cccc(Br)c1)c1ccccc1`, the Activity is 100%.
For `C[C@@H](NC(=O)Nc1ccccc1C(C)(C)C)c1ccccc1`, the Activity amounted to 95%.
In the case of `C[C@H](NC(=O)Nc1cccc(Cl)c1Cl)c1ccccc1`, the Activity is 100%.
On the same count and under the same terms, then `Cc1cc(F)ccc1NC(=O)N[C@@H](C)c1ccccc1`, with 98%; and `CCOC(=O)c1ccccc1NC(=O)N[C@@H](C)c1ccccc1`, with 100%.
Still for that read-out and setting: the same measure for `C[C@@H](NC(=O)Nc1ccc(C(F)(F)F)cc1)c1ccccc1`: 89%.
On the same count and under the same terms, then `COc1cccc(NC(=O)N[C@@H](C)c2ccccc2)c1`, with 99%; and `C[C@@H](NC(=O)Nc1cccc(Cl)c1)c1ccccc1`, with 91%.
As for `C[C@H](NC(=O)Nc1ccc(I)cc1)c1ccccc1`, the Activity came out at 97%.
Still for that read-out and setting: the same measure for `Cc1ccc(NC(=O)NC(C)(C)c2ccccc2)cc1` [DAIMURON]: 89%.
